Measurements published in PubChem BioAssay (NCI).
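GI50: concentration for 50% inhibition of growth. TGI marks complete inhibition of growth.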

Assays:
Assay in all cases: DTP human tumour cell line panel, 384-well format
EKVX NSCLC = tested on: EKVX NSCLC
COLO 205 colon = tested on: COLO 205 colon
HL-60(TB) leukemia = tested on: HL-60(TB) leukemia
HCT-15 colon = tested on: HCT-15 colon
A498 renal = tested on: A498 renal
HS 578T breast = tested on: HS 578T breast
SNB-75 CNS = tested on: SNB-75 CNS
NCI-H460 NSCLC = tested on: NCI-H460 NSCLC
LOX IMVI melanoma = tested on: LOX IMVI melanoma
HOP-62 NSCLC = tested on: HOP-62 NSCLC
MALME-3M melanoma = tested on: MALME-3M melanoma
HCC-2998 colon = tested on: HCC-2998 colon
OVCAR-4 ovarian = tested on: OVCAR-4 ovarian
MOLT-4 leukemia = tested on: MOLT-4 leukemia
IGROV1 ovarian = tested on: IGROV1 ovarian
SR leukemia = tested on: SR leukemia
MDA-MB-435 melanoma = tested on: MDA-MB-435 melanoma
SN12C renal = tested on: SN12C renal
SNB-19 CNS = tested on: SNB-19 CNS
HT29 colon = tested on: HT29 colon
SK-OV-3 ovarian = tested on: SK-OV-3 ovarian
HCT-116 colon = tested on: HCT-116 colon
MCF7 breast = tested on: MCF7 breast
BT-549 breast = tested on: BT-549 breast
UACC-62 melanoma = tested on: UACC-62 melanoma
ACHN renal = tested on: ACHN renal
NCI-H226 lung = tested on: NCI-H226 lung
CAKI-1 renal = tested on: CAKI-1 renal
SK-MEL-5 melanoma = tested on: SK-MEL-5 melanoma
KM12 colon = tested on: KM12 colon
HOP-92 NSCLC = tested on: HOP-92 NSCLC
OVCAR-8 ovarian = tested on: OVCAR-8 ovarian
RXF 393 renal = tested on: RXF 393 renal
SF-295 CNS = tested on: SF-295 CNS
SF-539 CNS = tested on: SF-539 CNS
NCI-H322M lung = tested on: NCI-H322M lung
UACC-257 melanoma = tested on: UACC-257 melanoma
PC-3 prostate = tested on: PC-3 prostate
OVCAR-5 ovarian = tested on: OVCAR-5 ovarian
A549 NSCLC = tested on: A549 NSCLC
SF-268 CNS = tested on: SF-268 CNS
U251 glioblastoma = tested on: U251 glioblastoma
OVCAR-3 ovarian = tested on: OVCAR-3 ovarian
MDA-MB-231 breast = tested on: MDA-MB-231 breast
T-47D breast = tested on: T-47D breast
NCI/ADR-RES ovarian = tested on: NCI/ADR-RES ovarian
NCI-H23 lung = tested on: NCI-H23 lung
RPMI-8226 leukemia = tested on: RPMI-8226 leukemia
MDA-MB-468 breast = tested on: MDA-MB-468 breast
M14 melanoma = tested on: M14 melanoma
SK-MEL-28 melanoma = tested on: SK-MEL-28 melanoma
NCI-H522 lung = tested on: NCI-H522 lung
DU-145 prostate = tested on: DU-145 prostate
TK-10 renal = tested on: TK-10 renal

## N[C@@H]1CCCN(c2c(/C=C3\SC(=O)NC3=O)cccc2-c2ccccc2)C1
EKVX NSCLC
  GI50: 16.4 µM
  TGI: 30 µM
COLO 205 colon
  GI50: 14.1 µM
  TGI: 27.1 µM
HL-60(TB) leukemia
  GI50: 1.31 µM
  TGI: 16.5 µM
HCT-15 colon
  GI50: 17.7 µM
  TGI: 31.7 µM
A498 renal
  GI50: 16.6 µM
  TGI: 30.3 µM
HS 578T breast
  GI50: 13.8 µM
  TGI: 26.8 µM
SNB-75 CNS
  GI50: 3.5 µM
  TGI: 12.1 µM
NCI-H460 NSCLC
  GI50: 16.8 µM
  TGI: 30.6 µM
LOX IMVI melanoma
  GI50: 17.8 µM
  TGI: 31.6 µM
HOP-62 NSCLC
  GI50: 11.7 µM
  TGI: 23.9 µM
MALME-3M melanoma
  GI50: 12.9 µM
  TGI: 25.7 µM
HCC-2998 colon
  GI50: 14.5 µM
  TGI: 27.7 µM
OVCAR-4 ovarian
  GI50: 12.3 µM
  TGI: 25.3 µM
MOLT-4 leukemia
  GI50: 13.4 µM
  TGI: 26.3 µM
IGROV1 ovarian
  GI50: 17.1 µM
  TGI: 31.2 µM
SR leukemia
  GI50: 1.16 µM
  TGI: 15.5 µM
MDA-MB-435 melanoma
  GI50: 15.1 µM
  TGI: 28.5 µM
SN12C renal
  GI50: 19.4 µM
  TGI: 33.6 µM
SNB-19 CNS
  GI50: 4.67 µM
  TGI: 15 µM
HT29 colon
  GI50: 15.2 µM
  TGI: 28.8 µM
SK-OV-3 ovarian
  GI50: 14.8 µM
  TGI: 28.5 µM
HCT-116 colon
  GI50: 15.4 µM
  TGI: 28.9 µM
MCF7 breast
  GI50: 14.5 µM
  TGI: 27.8 µM
BT-549 breast
  GI50: 1.9 µM
  TGI: 4.17 µM
UACC-62 melanoma
  GI50: 16.6 µM
  TGI: 30.4 µM
ACHN renal
  GI50: 17.7 µM
  TGI: 31.7 µM
NCI-H226 lung
  GI50: 13.8 µM
  TGI: 26.7 µM
CAKI-1 renal
  GI50: 18.5 µM
  TGI: 32.8 µM
SK-MEL-5 melanoma
  GI50: 11.4 µM
  TGI: 23.5 µM
KM12 colon
  GI50: 16.9 µM
  TGI: 30.8 µM
HOP-92 NSCLC
  GI50: 11.5 µM
  TGI: 23.8 µM
OVCAR-8 ovarian
  GI50: 16.2 µM
  TGI: 29.9 µM
RXF 393 renal
  GI50: 17 µM
  TGI: 30.8 µM
SF-295 CNS
  GI50: 6.08 µM
  TGI: 18.7 µM
SF-539 CNS
  GI50: 7.38 µM
  TGI: 20.2 µM
NCI-H322M lung
  GI50: 18 µM
  TGI: 31.9 µM
UACC-257 melanoma
  GI50: 15.9 µM
  TGI: 29.4 µM
PC-3 prostate
  GI50: 13.2 µM
  TGI: 26 µM
OVCAR-5 ovarian
  GI50: 17 µM
  TGI: 30.8 µM
A549 NSCLC
  GI50: 16.7 µM
  TGI: 30.8 µM
SF-268 CNS
  GI50: 16.8 µM
  TGI: 30.6 µM
U251 glioblastoma
  GI50: 8.54 µM
  TGI: 20.8 µM
OVCAR-3 ovarian
  GI50: 13.1 µM
  TGI: 25.9 µM
MDA-MB-231 breast
  GI50: 14.5 µM
  TGI: 27.8 µM
T-47D breast
  GI50: 15.6 µM
  TGI: 29 µM
NCI/ADR-RES ovarian
  GI50: 18.1 µM
  TGI: 33.1 µM
NCI-H23 lung
  GI50: 16.8 µM
  TGI: 30.6 µM
RPMI-8226 leukemia
  GI50: 0.543 µM
  TGI: 3.07 µM
MDA-MB-468 breast
  GI50: 14.6 µM
  TGI: 27.8 µM
M14 melanoma
  GI50: 14.6 µM
  TGI: 27.8 µM
SK-MEL-28 melanoma
  GI50: 16.9 µM
  TGI: 30.7 µM
NCI-H522 lung
  GI50: 13.5 µM
  TGI: 26.4 µM
DU-145 prostate
  GI50: 16.9 µM
  TGI: 30.7 µM
TK-10 renal
  GI50: 12.3 µM
  TGI: 24.9 µM

## N#Cc1ccc(C(c2ccc(C#N)cc2)n2cncn2)cc1
RXF 393 renal
  GI50: 16.8 µM
  TGI: 97.8 µM
